From patent US10208056B2, “Condensed tricyclic compounds as protein kinase inhibitors” (FUNDACIÓN DEL SECTOR PÚBLICO ESTATAL CENTRO NACIONAL DE …, priority 2015, dated 2019) come the findings set out here.

One assay deals with A549. As to the kind of experiment: Combination assay, A549. The format is cell-based. On the procedure: (§1) The combination index (CI) of combinations of certain example compounds and various chemotherapeutic agents in the CellTitetI-Glo® in vitro cell proliferation assays may be tested. A combination index score is calculated by the Chou and Talalay method (CalcuSyn software, Biosoft). The strength of synergy is scored using the ranking system Chou and Talalay: CI less than 0.8 indicates synergy, CI between 0.8 and 1.2 indicates additivity and CI greater than 1.2 indicates antagonism.
(§2) The EC50 values of representative combinations are also calculated. The individually measured EC50 values of the chemotherapeutic agent and the example compounds are compared to the EC50 value of the combination. The cell lines are characterised by tumor type. Combination assays are performed as described in: “Pim 1 kinase inhibitor ETP-45299 suppresses cellular proliferation and synergizes with PI3K inhibition”. Blanco-Aparicio, Carmen; Collazo, Ana Maria Garcia; Oyarzabal, Julen; Leal, Juan F.; Albaran, Maria Isabel; Lima, Francisco Ramos; Pequeno, Belen; Ajenjo, Nuria; Becerra, Mercedes; Alfonso, Patricia; Reymundo, Maria Isabel; Palacios, Irene; Mateos, Genoveva; Quinones, Helena; Corrionero, Ana; Carnero, Amancio; Pevarello, Paolo; Lopez, Ana Rodriguez; Fominaya, Jesus; Pastor, Joaquin; Bischoff, James R. Cancer Letters (Shannon, Ireland) 2011, 300(2), 145-153

In the next assay the test system is MDAMB231. In words: Combination assay, MDAMB231. Type of assay: cell-based. On the procedure:
as §1, §2

Assay [1] has as its system SW620 human colon cancer xenografts. In words: In vivo target modulation studies (P-STAT1 S727 in tumors). Also on record: species or system mice. To be noted: single oral dose 5 mg/kg; tumors sampled 1, 4, 8 and 24 h. On the procedure: The in vivo potency of the compounds was measured determining target modulation in human colon xenografts. Eight weeks old female athymic nude mice (Harlan Sprague Dawley Inc) are subcutaneously grafted with 10*10^6 SW620 human colon cancer cells. When the tumors reach a size of 200-400 mm^3 the mice are dosed orally with 5 mg/kg of Example 43 or vehicle. Tumors are excised 1, 4, 8 and 24 h after administration (n=3 mice per time point) and are processed for western blot and for HPLC/MS/MS in order to determine the concentration for Example 43 in the tumor. […] The supernatants are removed and protein concentration is determined by Bradford method (Bio-Rad Protein Assay). […] 30-60 μg of total proteins extracts are analyzed by western blot for STAT1P/STAT1 modulation as has been described in the cellular CDK8 inhibition assay. […] Specific solid phase extraction methods as well as LC-MS/MS analysis and quantification methods were developed, reaching LLOQs of 1 ng/ml. […]

The test system of the next assay is SW620 cells. In words: Cell cycle assay (propidium iodine, flow cytometry). Type of assay: cell-based, human. As to conditions: SW620, 24 h, increasing concentrations. On the procedure: Compounds can be screened for their ability to affect the cell cycle using a propidium iodine assay and analysis by flow cytometry. SW620 are plated at 500000 cells per well in 6-well plates (Solmeglas 13118) in RPMI media (Sigma-Aldrich R6504) supplemented with 10% foetal bovine serum (Sigma-Aldrich F7524), Penicillin/Streptomycin solution diluted 1:100 (Gibco 15070-063), and fungizone (Gibco, 15290-018), and allowed to adhere overnight at 37° C. in 5% CO2. Cells are then treated 24 h hours with compounds at final concentration of 5, 2.5, 1 and 0.5 μM. Cells are collected by trypsinization and centrifugation at 1250 rpm and washed with PBS (Sigma Ref. D8537). Cells are fixated with 70% cold ethanol (Merck Ref 100983)) and kept at 4° C. at least for 12 hours. After centrifugation, cells are washed with PBS and DNA is stained with a solution of 0.2 mg/mL RNAase (Quiagen Ref 1007885) and 0.02 mg/mL propidium iodine (Sigma Ref P4864). After 30 minutes incubation at room temperature in the dark cells are analyzed by FACSCalibur™ (BD biosciences) and Flowjo software.

In the next assay the test system is DU145. As to the kind of experiment: Combination assay, DU145. The format is cell-based. On the procedure:
as §1
The EC50 values of representative combinations are also calculated. The individually measured EC50 values of the chemotherapeutic agent and the example compounds are compared to the EC50 value of the combination. The cell lines are characterised by tumor type. […] Blanco-Aparicio, Carmen; Collazo, Ana Maria Garcia; Oyarzabal, Julen; Leal, Juan F.; Albaran, Maria Isabel; Lima, Francisco Ramos; Pequeno, Belen; Ajenjo, Nuria; Becerra, Mercedes; Alfonso, Patricia; Reymundo, Maria Isabel; Palacios, Irene; Mateos, Genoveva; Quinones, Helena; Corrionero, Ana; Carnero, Amancio; Pevarello, Paolo; Lopez, Ana Rodriguez; Fominaya, Jesus; Pastor, Joaquin; Bischoff, James R. Cancer Letters (Shannon, Ireland) 2011, 300(2), 145-153

For the next assay, the system named is SKMEL19. As to the kind of experiment: Combination assay, SKMEL19. Type of assay: cell-based. On the procedure: as §1, §2
Where [2] appears, read: A549, combination with Elesclomol.
Setting [3] is: MDAMB231, combination with Elesclomol.
[4] abbreviates: DU145, combination with Alisertib.
The mark [5] stands for this setting: DU145, combination with Crizotinib.
Setting [6] is: SKMEL19, combination with Crizotinib.
Where [7] appears, read: SKMEL19, combination with Elesclomol.

For `CCn1c(C(N)=O)cc2c1-c1ccncc1OC2(C)C` [Example 43], the “Combination index (CI)” value with A549 (setting [2]) is listed as 0.63; in the assay with MDAMB231 (setting [3]), 0.59; with DU145 (setting [4]), 0.65; with DU145 (setting [5]), 0.44; in the assay with DU145 (DU145, combination with Taxol), 0.21; in the assay on SKMEL19 (setting [6]), 0.55. Besides, the “Combination index (CI)” value with SKMEL19 (setting [7]) is 0.49. Besides, the Synergy result in the assay on A549 (setting [2]) was “++ (0.3 < CI < 0.7 (++))”; in the assay with MDAMB231 (setting [3]), “++ (0.3 < CI < 0.7 (++))”; in the assay on DU145 (setting [4]), “++ (0.3 < CI < 0.7 (++))”; with DU145 (setting [5]), “++ (0.3 < CI < 0.7 (++))”; in the assay on DU145 (DU145, combination with Taxol) it was “+++ (0.1 < CI < 0.3 (+++))”; in the assay on SKMEL19 (setting [6]), “++ (0.3 < CI < 0.7 (++))”. For the same compound, the Synergy entry in the assay with SKMEL19 (setting [7]) is “++ (0.3 < CI < 0.7 (++))”. Also, the GI50 was 5 µM in the assay on A549 (Homo sapiens, A549, example compound alone, read-out: CDK8 inh GI50); 5 µM in the assay on MDAMB231 (Homo sapiens, MDA-MB-231, MDAMB231, example compound alone, read-out: CDK8 inh GI50); 5 µM in the assay with DU145 (Homo sapiens, DU-145, DU145, example compound alone, read-out: CDK8 inh GI50); 1.25 µM in the assay with SKMEL19 (Homo sapiens, SK-MEL19, SKMEL19, example compound alone, read-out: CDK8 inh GI50). The “target modulation in vivo, P-STAT1 (S727)” value in assay [1] was “Clear target modulation is observed at 1 and 4 h”. Besides, in the assay with SW620 cells, the “effect on cell cycle” value is “induced G2M arrest and apoptosis”.
